Laboratory results taken from patent US9868748B2, “Thiazolopyrrolidine inhibitors of ROR- γ” (Vitae Pharmaceuticals, Inc., priority 2013, dated 2018).
Where two headings read alike, the source gives them in different places.

What was measured:
[1] = target: full-length RORγt in Jurkat cells (Homo sapiens (Human), UniProt P51449); assay: RORγt 5xRORE Assay in Jurkat Cells (Assay 2); type: cell-based; conditions: Nanoluc luciferase reporter, 16-18 hrs
Summary of the method: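 Inverse agonist activity was read as NanoGlo luminescence from conditioned medium after 16–18 h compound exposure (37 °C, 0.1% DMSO final). The cells were Jurkat, transiently transfected with RORγt and a secNluc reporter carrying five RORE repeats, seeded 80,000 per well in delipidated-serum RPMI.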

[2] = target: recombinant RORγ Ligand Binding Domain (LBD) protein (Homo sapiens (Human), UniProt P51449); assay: Radio-Ligand RORγ Binding Assay (Assay 1); conditions: competition with 25-hydroxy [26,27-3H]-cholesterol, SPA, read-out: RORγ Binding Ki Range*
Sequence of recombinant RORγ Ligand Binding Domain (LBD) protein (P51449 269-508): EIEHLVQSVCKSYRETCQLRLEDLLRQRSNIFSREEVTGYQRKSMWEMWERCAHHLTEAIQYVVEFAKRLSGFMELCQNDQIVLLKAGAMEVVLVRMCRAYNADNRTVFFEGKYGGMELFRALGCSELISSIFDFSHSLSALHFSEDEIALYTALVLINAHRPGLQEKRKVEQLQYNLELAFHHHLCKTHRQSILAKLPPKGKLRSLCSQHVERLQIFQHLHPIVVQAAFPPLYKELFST
Summary of the method: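 Recombinant human RORγ ligand binding domain (6×His-GST fusion, 24 nM stock) competed with tritiated 25-hydroxycholesterol (8.6 nM stock) in HEPES buffer pH 7.4 with detergents and DTT; poly-Lys YSi SPA beads, room temperature, tritium SPA signal. Four-parameter IC50 from semi-log dilutions, normalised to DMSO and 10 μM T0901317, then Ki via KD equation.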

[3] = Table 9, read-out: RORγt5X IC50 Range*
[4] = Table 8, read-out: RORγt5X IC50 Range*

Sequence of full-length RORγt in Jurkat cells (P51449 other isoform, or with tags, fused parts or gaps): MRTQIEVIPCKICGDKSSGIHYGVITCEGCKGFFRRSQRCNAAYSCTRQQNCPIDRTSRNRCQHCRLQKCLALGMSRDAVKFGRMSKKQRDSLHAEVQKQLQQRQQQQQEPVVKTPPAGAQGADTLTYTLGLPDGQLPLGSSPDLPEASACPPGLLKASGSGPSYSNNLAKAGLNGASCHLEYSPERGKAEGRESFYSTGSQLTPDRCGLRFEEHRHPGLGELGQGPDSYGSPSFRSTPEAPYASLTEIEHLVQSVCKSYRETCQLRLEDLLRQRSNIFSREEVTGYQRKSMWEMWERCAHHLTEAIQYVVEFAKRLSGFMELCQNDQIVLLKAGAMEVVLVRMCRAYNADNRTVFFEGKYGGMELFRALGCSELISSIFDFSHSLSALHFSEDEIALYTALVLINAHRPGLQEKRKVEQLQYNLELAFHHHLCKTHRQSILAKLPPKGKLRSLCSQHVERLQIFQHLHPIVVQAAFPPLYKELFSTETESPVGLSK

Row | Structure (SMILES) | IC50 [1, 3] [nM] | Ki ([2]; Table 9) [nM] | IC50 [1, 4] [nM] | Ki ([2]; Table 8) [nM]
1 | CCS(=O)(=O)c1ccc(CC(=O)Nc2nc3c(s2)CN(c2nccc(C4CC4)n2)[C@@H]3C(C)C)cc1 | > 1000 | < 100 |  | 
2 | CCS(=O)(=O)c1ccc(CC(=O)Nc2nc3c(s2)CN(CC2CN(CC(F)(F)F)C2)[C@H]3C(C)C)cc1 | 100 to 1000 | < 100 |  | 
3 | CCS(=O)(=O)c1ccc(CC(=O)Nc2nc3c(s2)CN(Cc2ccc(OC(F)F)cn2)[C@H]3C(C)C)cc1 [I-A54] |  |  | < 100 | < 100
4 | CCS(=O)(=O)c1ccc(CC(=O)Nc2nc3c(s2)C(C)N(Cc2ccc(Cl)cc2)[C@H]3C(C)C)cc1 (some centres unmarked) | < 100 | < 100 |  | 
5 | CC(C)[C@H]1c2nc(NC(=O)Cc3ccc(S(C)(=O)=O)cc3)sc2CN1[C@@H](C)c1ccc(Cl)cn1 (single isomer, unassigned) | 100 to 1000 | < 100 |  | 
6 | CCS(=O)(=O)c1ccc(CC(=O)Nc2nc3c(s2)CN(Cc2ccc(-c4nnn(C)n4)cc2)[C@H]3C(C)C)cc1 [I-A42] |  |  | < 100 | < 100
7 | CCS(=O)(=O)c1ccc(CC(=O)Nc2nc3c(s2)CN(c2ncc(C(C)=O)c(C(F)(F)F)n2)[C@H]3C(C)C)cc1 | > 1000 | < 100 |  | 
8 | Cc1cc(C(F)(F)F)nc(N2Cc3sc(NC(=O)Cc4ccc(S(C)(=O)=O)cc4)nc3[C@H]2C(C)C)n1 | > 1000 | 100 to 1000 |  | 
9 | CC(C)[C@H]1c2nc(NC(=O)Cc3ccc(S(C)(=O)=O)cc3)sc2CN1Cc1ccc(C#N)c(Cl)c1 [I-B8] |  |  | < 100 | < 100
10 | CCS(=O)(=O)c1ccc(CC(=O)Nc2nc3c(s2)CN(Cc2cccc(F)c2)[C@@H]3C(C)C)cc1 | > 1000 | < 100 |  | 
11 | CCS(=O)(=O)c1ccc(CNC(=O)c2nc3c(s2)CN(C[C@H]2CN(C(=O)OC(C)(C)C)CCO2)[C@H]3C(C)C)cc1 (relative stereo) | 100 to 1000 | < 100 |  | 
12 | CC[C@H]1c2nc(NC(=O)Cc3ccc(S(=O)(=O)C(F)F)cc3)sc2CN1Cc1ccc(Cl)cc1 | 100 to 1000 | < 100 |  | 
13 | CCS(=O)(=O)c1ccc(CC(=O)Nc2nc3c(s2)CN(C[C@H]2CC[C@](C)(C#N)CC2)[C@H]3C(C)C)nc1 (single isomer, unassigned) | > 1000 | < 100 |  | 
14 | CCS(=O)(=O)c1ccc(CC(=O)Nc2nc3c(s2)CN(Cc2ccc(C#N)cn2)[C@@]3(C)C(C)C)cc1 [I-I1, (S)—N-(5-((5-cyanopyridin-2-yl)methyl)-4-isopropyl-4-methyl-5,6-dihydro-4H-pyrrolo[3,4-d]thiazol-2-yl)-2-(4-(ethylsulfonyl)phenyl)acetamide] |  |  | < 100 | < 100
15 | CCS(=O)(=O)c1ccc(CNC(=O)c2nc3c(s2)CN(CC2CN(C(=O)OC(C)(C)C)CCO2)[C@H]3C(C)C)cc1 (some centres unmarked) | < 100 | < 100 |  | 
16 | CC(C)[C@@H]1c2nc(NC(=O)Cc3ccc(S(C)(=O)=O)cc3)sc2CN1Cc1ccc(OC(F)F)cc1F | 100 to 1000 | 100 to 1000 |  | 
17 | CCS(=O)(=O)c1ccc(CC(=O)Nc2nc3c(s2)CN([C@@H](C)c2ccc(Br)cc2F)[C@H]3C(C)C)cc1 [I-A25] |  |  | < 100 | < 100
18 | CCS(=O)(=O)c1ccc(CNC(=O)c2nc3c(s2)CN(Cc2ccc(C#N)cc2)[C@H]3C(C)C)cc1 [I-J2] |  |  | < 100 | < 100
19 | CCS(=O)(=O)c1ccc(CC(=O)Nc2nc3c(s2)CN(Cc2ccn(C(F)F)c(=O)c2)[C@H]3C(C)C)cc1 | < 100 | < 100 |  | 
20 | CCS(=O)(=O)c1ccc(CC(=O)Nc2nc3c(s2)CN(Cc2ccc(C(F)(F)F)cc2)[C@H]3C(C)C)nc1 [I-C4] |  |  | < 100 | < 100

Row | Structure (SMILES) | IC50 [1, 3] [nM] | Ki ([2]; Table 9) [nM] | IC50 [1, 4] [nM] | Ki ([2]; Table 8) [nM]
21 | CCS(=O)(=O)c1ccc(CC(=O)Nc2nc3c(s2)CN(Cc2ccc(OC(F)(F)F)cc2)[C@H]3C(C)C)cc1 [I-A16] |  |  | < 100 | < 100
22 | CC[C@@H]1c2nc(NC(=O)Cc3ccc(S(=O)(=O)CC)cc3)sc2CN1Cc1ccc2c(c1)OCO2 | > 1000 | < 100 |  | 
23 | CC(C)[C@H]1c2nc(C(=O)NCc3ccc(S(C)(=O)=O)cc3)sc2CN1Cc1ccc(Cl)cn1 [I-K1, (S)-5-((5-chloropyridin-2-yl)methyl)-4-isopropyl-N-(4-(methylsulfonyl)benzyl)-5,6-dihydro-4H-pyrrolo[3,4-d]thiazole-2-carboxamide] |  |  | 100 to 1000 | < 100
24 | CC(C)[C@H]1c2nc(NC(=O)Cc3ccc(C#N)cc3)sc2CN1Cc1ccc(C#N)c(OC(F)F)c1 | 100 to 1000 | < 100 |  | 
25 | CCS(=O)(=O)c1ccc(CNC(=O)c2nc3c(s2)CN(Cc2ccc(Cl)cc2)[C@H]3C(C)C)nc1 [I-L1, (S)-5-(4-chlorobenzyl)-N-((5-(ethylsulfonyl)pyridin-2-yl)methyl)-4-isopropyl-5,6-dihydro-4H-pyrrolo[3,4-d]thiazole-2-carboxamide] |  |  | < 100 | < 100
26 | CCS(=O)(=O)c1ccc(CC(=O)Nc2nc3c(s2)CN(Cc2ccc(N)nc2)[C@H]3C(C)C)cc1 | > 1000 | < 100 |  | 
27 | CCS(=O)(=O)c1ccc(CC(=O)Nc2nc3c(s2)CN(c2nccc(C(F)(F)F)n2)[C@H]3C(C)C)cc1 | > 1000 | < 100 |  | 
28 | CC(C)[C@H]1c2nc(NC(=O)Cc3ccc(S(C)(=O)=O)cc3)sc2CN1Cc1ccc(-c2nnn(C)n2)cc1 [I-B9] |  |  | < 100 | < 100
29 | CC(C)[C@H]1c2nc(NC(=O)Cc3ccc(S(C)(=O)=O)cc3)sc2CN1Cc1ccc(C(F)(F)F)nc1 [I-B5] |  |  | < 100 | < 100
30 | CCS(=O)(=O)c1ccc(CC(=O)Nc2nc3c(s2)CN(Cc2ccc(C(F)(F)F)cc2C#N)[C@H]3C(C)C)cc1 [I-A45] |  |  | < 100 | < 100
31 | CCS(=O)(=O)c1ccc(CC(=O)Nc2nc3c(s2)CN(C[C@@H]2CC[C@H](C(F)(F)F)N(C)C2)[C@H]3C(C)C)cc1 (relative stereo) | > 1000 | < 100 |  | 
32 | CCS(=O)(=O)c1ccc(CC(=O)Nc2nc3c(s2)CN(C(C)c2ccc(F)cc2)[C@@H]3C(C)C)cc1 (some centres unmarked) | > 1000 | < 100 |  | 
33 | CC(C)[C@H]1c2nc(NC(=O)Cc3ccc(-c4nnnn4C)cc3)sc2CN1Cc1ccc(Cl)cc1 | > 1000 | 100 to 1000 |  | 
34 | CCS(=O)(=O)c1ccc(CC(=O)Nc2nc3c(s2)CN(Cc2cccc(C4CC4)c2)[C@@H]3C(C)C)cc1 | > 1000 | < 100 |  | 
35 | CCS(=O)(=O)c1ccc(CC(=O)Nc2nc3c(s2)CN(C[C@H]2CC[C@H](C#N)CC2)[C@H]3C(C)C)cc1 | < 100 | < 100 |  | 
36 | CCS(=O)(=O)c1ccc(CC(=O)Nc2nc3c(s2)CN(C[C@H]2CC[C@@H](C(F)(F)F)OC2)[C@H]3C(C)C)nc1 (single isomer, unassigned) | 100 to 1000 | < 100 |  | 
37 | CCS(=O)(=O)c1ccc(CC(=O)Nc2nc3c(s2)CN(Cc2ccc(C(F)(F)F)cc2)[C@H]3C(C)C)cc1 [I-A2, (S)-2-(4-(ethylsulfonyl)phenyl)-N-(4-isopropyl-5-(4-(trifluoromethyl)benzyl)-5,6-dihydro-4H-pyrrolo[3,4-d]thiazol-2-yl)acetamide] |  |  | < 100 | < 100
38 | CCS(=O)(=O)c1ccc(CNC(=O)c2nc3c(s2)CN(CC2CN(CC(F)(F)F)CCO2)[C@H]3C(C)C)cc1 (some centres unmarked) | > 1000 | < 100 |  | 
39 | CCS(=O)(=O)c1ccc(CC(=O)Nc2nc3c(s2)CN([C@H](C)c2ccc(C#N)cn2)[C@H]3C(C)C)cc1 (single isomer, unassigned) | < 100 | < 100 |  | 
40 | CC[C@H]1c2nc(NC(=O)Cc3ccc(S(=O)(=O)CC)cc3)sc2CN1Cc1ncc(Cl)cn1 | < 100 | 100 to 1000 |  | 
